# Source: patent US11129897B2, “Fast-acting plant-based medicinal compounds and nutritional supplements” (RECEPTOR HOLDINGS, INC., priority 2016, dated 2021)
# Legend:
# [1] = cited from earlier work
# [2] = versus molecule without SNAC; in words; cited from earlier work
# study participants [3] = assay: Onset and duration of action of orally administered Cannabis/SNAC composition at a low SNAC dose (Example 3, 100 mg SNAC); format: in vivo, human; settings: oral; 100 mg SNAC with Cannabis concentrate (8 mg THC)
# Protocol: This study was designed to assess the utility of SNAC in enabling a rapid-acting oral form of Cannabis at a low dose.
# Selection of Participants. Three study participants were recruited to ingest Cannabis compositions and record the onset, duration, and intensity of Cannabis-induced euphoria and/or dysphoria.
# (§1) Formulations. The selected Cannabis concentrate is commercially available and was provided to participants in an ethanol solution. The concentrate contains 8 mg THC per dose. It was selected because it contains a high percentage of THC, which provides a noticeable effect on user-reported “euphoria”.
# (§2) Methods. For the Control experiment, each participant mixed the Cannabis concentrate with 15 ml (one tablespoon) of aqueous ethanol, and immediately swallowed the mixture.
# (§3) For both the Control experiment and the Test experiment, each participant recorded the time of dose administration, the time of onset of euphoria and/or dysphoria, and the observed level of euphoria and/or dysphoria in fifteen minute intervals for five hours following administration of the Cannabis dose. Euphoria and dysphoria were reported using a scale value, in a range from 1-5.
# study participants [4] = assay: Onset and duration of action of orally administered Cannabis/SNAC composition (Example 2, 200 mg SNAC); format: in vivo, human; settings: oral; 200 mg SNAC with Cannabis concentrate (8 mg THC)
# Protocol: This study was designed to assess the utility of SNAC in enabling a rapid-acting oral form of Cannabis.
# Selection of Participants. Six study participants were recruited to ingest Cannabis compositions and record the onset, duration, and intensity of Cannabis-induced euphoria and/or dysphoria.
# as §1, §2
# as §3, with “1-10.” for “1-5.”
Compound,"absorption when co-administered with an N-acylated fatty amino acid (e.g., SNAC) [2]",further results
"CCCCCc1cc(O)c2c(c1)OC(C)(C)[C@@H]1CCC(C)=C[C@@H]21 [THC, delta-9-tetrahydrocannabinol]",–,"appetite stimulant effect may continue after administration ([1]; after oral administration): ≥ 24 h; duration of action for psychoactive effects ([1]; after oral administration): 4 to 6 h; peak effect (time) ([1]; after oral administration): 2 to 4 h; administered dose that reaches the systemic circulation ([1]; oral, first pass hepatic metabolism and poor aqueous solubility): 10-20%"
CCCCCN(C)CCC(O)(P(=O)(O)O)P(=O)(O)O [ibandronate],improved absorption,–
"GLP-1: GLP-1, water-soluble molecule with SNAC-improved absorption",improved absorption,–
MT-II,improved absorption,–
PTH 1-34: parathyroid hormone 1-34,improved absorption,–
"calcitonin: calcitonin, water-soluble molecule with SNAC-improved absorption",improved absorption,–
heparin,improved absorption,–
"peptide yy: peptide yy, water-soluble molecule with SNAC-improved absorption",improved absorption,–
rhGH: recombinant human growth hormone,improved absorption,–
sodium N-[8-(2-hydroxybenzoyl) amino] caprylate [SNAC],–,effect of the absorption enhancer on the duration of action of Cannabis (study participants [3]): no effect on the duration of action; effect of the absorption enhancer on the duration of action of Cannabis (study participants [4]): no effect on the duration of action
vitamin B12,improved absorption,–
